Read-outs that look alike come from different tables or passages of the source.
Experiments:
ectopics = assay: Conscious dogs with ligation of a coronary artery according to Harris: ectopics and convulsions; format: in vivo; details: Canis lupus familiaris, iv.; for ED50: accumulative end dose giving 50% reduction of ectopics, read-out: Conscious dog Harris ligation Ectopics -50%; for ED90: accumulative end dose giving 90% reduction of ectopics, read-out: Conscious dog Harris ligation Ectopics -90%
Excerpt: (§1) Male beagle dogs, 7-13 kg, undergo two days prior to the test a surgical ligation of a coronary artery. On the day of the test the conscious dog is secured in a canvas sling in a standing position and given increasing doses of the test compounds by intravenous administration. ECG, blood pressure etc are monitored and attention is paid to all CNS-effects. The dogs have almost 100 percent of ectopics prior to administration of the compound to be tested. Effects of the test drug on the frequency of ectopics are calculated from ECG. The accumulative end doses giving 50% and 90% reduction of ectopics as well as the ED50 values which give convulsions (side-effect) are measured and given below in Table 3. The value for convulsions is a mean value for 3-5 dogs.
(§2) x) The value given is the final value in a series of doses 0.5 + 1 + 2 + 4 + 8 mg/kg i.v. giving 50% reduction of ectopics. 30 min interval between doses.
(§3) Table 3: Antiarrythmic effect and CNS-effects of four β-receptor blockers, a membrane stabilizer, and ten new compounds with combined β-blocking and membrane stabilizing effect.

[1] = as above; format: in vivo; details: in vivo
Excerpt: as §1, §2, §3

[2] = tested on: ouabain-induced arrhythmias; assay: Ouabain-induced arrhythmias in anesthetized guinea-pigs; format: in vivo; details: for A-A EFFECT IN NUMBER OF ANIMALS: animals with antiarrhythmic effect / animals tested; for LOWEST FREQUENCY: frequency of ventricular premature beats after test solution; for ASYSTOLE: time of asystole under continued ouabain; for V-FIB: time of ventricular fibrillation under continued ouabain
Description: Guinea-pigs of either.sex (300-400 g) were anesthetized with urethane 1,4 g/kg i.p. and tracheotomized. ECG, lead II was picked up with needle electrodes and was registered continuously throughout the experiment. Two i.v. catheters were inserted: one for the administration of ouabain, the other for the test solution.
The experimental design for the study of antiarrhythmic activities is schematically shown in the head of Table 2. The arrhythmia was induced by automatic infusion of ouabain, 18 µg/kg/60" every two minutes for twelve minutes and thereafter 9 µg/kg/30" every two minutes throughout the whole experiment and the infusion was not stopped until asystole occurred. As soon as the frequency of ventricular premature beats (VPB) had passed 50 per cent, the test solution was given i.v. (0,2 ml/min) during 2 min. (see head of Table 2).

[3] = tested on: chloroform induced ventricular tachy-cardia; assay: Alternative chloroform test on mice: ventricular tachycardia inhibition and ataxia; format: in vivo; details: Mus musculus; sc.; mice, chloroform; groups of 10 animals per dose-level
Description: (§4) In an alternative chloroform test on mice the ventricular tachycardia inhibition by the test compounds are observed. Thereby the test solution is given subcutaneous and the animal is observed for CNS-effects for 20 min. The mouse is put into a chamber with chloroform until it stops breathing (approx 30 sec.). The animal is then secured on a cork-board and ECG is monitored. If the ventricular rythm is less than 520 beats per min., the animal was protected against ventricular tachycardia. Groups of 10 animals were tested for each dose-level'and the ED50-values have been calculated therefrom. During the test the side-effect ataxia (incordination of movements) is observed.
(§5) In Table 5, as shown, the new compounds tested exerted antiarrhythmic effects also in this te-st.

[4] = as above; format: in vivo; details: mouse, in vivo
Description: as §4, §5

[5] = tested on: chloroform-induced ventricular arrhythmias; assay: Chloroform-induced ventricular arrhythmias (fibrillation) in mice, intraperitoneal dose; details: for Number of Animals Protected: protected against CHCl3-induced ventricular fibrillation
Excerpt: Mice were given an intraperitoneal dose of the test compound. Twenty minutes after dose, they were suffocated in chloroform vapor.- When the animals stopped breathing, the chest was opened to inspect for fibrillation. If the heart was not fibrillating, it was prodded.
Signs of CNS toxicity were noted during the 20-minute interval between dosing and challenge.
"Protected" means number of animals protected against CHC13- induced ventricular fibrillation.

[6] = dose 100 mg/kg intraperitoneal, 10 treated

Compound `COCCc1ccc(OCC(O)CNCCc2ccc(O)cc2)cc1` (centres unmarked) [Ex. 2] has an ED50 (ectopics) of 4 mg/kg, an ED90 (ectopics) of 8 mg/kg and a TD50 ([1]; dog, iv) of 8 mg/kg. The “A-A EFFECT IN NUMBER OF ANIMALS” value ([2]; dose 0.1 mg/kg i.v.) was 7/7, the “A-A EFFECT IN NUMBER OF ANIMALS” value ([2]; dose 0.3 mg/kg i.v.) was 6/6 and the “LOWEST FREQUENCY” value ([2]; dose 0.1 mg/kg i.v.) was 25±7%. The “LOWEST FREQUENCY” value ([2]; dose 0.3 mg/kg i.v.) was 5±2%, the ASYSTOLE ([2]; dose 0.1 mg/kg i.v.) was 27 ± 3 min and the ASYSTOLE ([2]; dose 0.3 mg/kg i.v.) was 35 ± 3 min. For the same compound, the V-FIB ([2]; dose 0.1 mg/kg i.v.) was 20 ± 2 min, the V-FIB ([2]; dose 0.3 mg/kg i.v.) was 29 ± 2 min and the ED50 [3] was 3 mg/kg. The TD50 at 20 min ([4]; sc) was > 13 mg/kg, the “Number of Animals Dead” value [5, 6] was 0 and the “Number of Animals Protected” value [5, 6] was 8. The “Number of Animals Convulsive” value ([5]; mouse, in vivo, ip, 100 mg/kg) was 0 and the “Number of Animals LRR” value ([5]; mouse, in vivo, ip, 100 mg/kg) was 0.
Work on `CC(C)NCC(O)COc1cccc2ccccc12` (centres unmarked) [Propranolol] yielded an ED50 (ectopics) of 1 mg/kg, an ED90 (ectopics) of 3 mg/kg and a TD50 ([1]; iv., conscious dog, mean value for 3-5 dogs, read-out: ED50 Convulsive) of 8 mg/kg. For the same compound, the “A-A EFFECT IN NUMBER OF ANIMALS” value ([2]; dose 0.03 mg/kg i.v.) was 6/7, the “A-A EFFECT IN NUMBER OF ANIMALS” value ([2]; dose 0.1 mg/kg i.v.) was 6/7 and the “A-A EFFECT IN NUMBER OF ANIMALS” value ([2]; dose 0.3 mg/kg i.v.) was 6/6. The “LOWEST FREQUENCY” value ([2]; dose 0.03 mg/kg i.v.) was 29±5%, the “LOWEST FREQUENCY” value ([2]; dose 0.1 mg/kg i.v.) was 9±5% and the “LOWEST FREQUENCY” value ([2]; dose 0.3 mg/kg i.v.) was 4±2%. For the same compound, the ASYSTOLE ([2]; dose 0.03 mg/kg i.v.) was 29 ± 2 min, the ASYSTOLE ([2]; dose 0.1 mg/kg i.v.) was 35 ± 4 min and the ASYSTOLE ([2]; dose 0.3 mg/kg i.v.) was 32 ± 5 min. For the same compound, the V-FIB ([2]; dose 0.03 mg/kg i.v.) was 21 ± 3 min, the V-FIB ([2]; dose 0.1 mg/kg i.v.) was 30 ± 5 min and the V-FIB ([2]; dose 0.3 mg/kg i.v.) was 27 ± 6 min. The ED50 [3] was 0.6 mg/kg, the TD50 at 20 min ([4]; sc., mice, observed for 20 min, read-out: Ataxia ED50) was > 1 mg/kg and the “Number of Animals Dead” value [5, 6] was 0. The “Number of Animals Convulsive” value ([5]; dose 100 mg/kg intraperitoneal, 10 treated, convulsions within 20 minutes after dosing) was 10, the “Number of Animals LRR” value ([5]; dose 100 mg/kg intraperitoneal, 10 treated, loss of righting reflex) was 1 and the “Number of Animals Protected” value [5, 6] was 10.
